Source: publication PMC10759609, “A novel PDPN antagonist peptide CY12-RP2 inhibits melanoma growth via Wnt/β-catenin and modulates the immune cells” (Journal of Experimental & Clinical Cancer Research : CR, 2024)

Assays:
melanoma = conditions: in vitro and in vivo; cited from earlier work
Description: Therapeutic peptides are a novel and promising type of anti-cancer drug, due to several important advantages over proteins or antibodies: they are molecularly small, easy to synthesize, and capable of penetrating cell membranes; they also have high biological activity, affinity, chemical diversity, and specificity. Phage display technology is a high-throughput screening technique that greatly amplifies the application of directional evolution techniques for antibody and peptide modification screening, and first described in 1985 by Smith. Phage display inserts th ...

[1] = system: EMT in A875 PDPN overexpression cells; test: Western blot EMT proteins, PDPN-overexpressing A875 cells; format: cell-based
Description: (§1) Melanoma cells were cultured in a 60 mm dish with a complete medium and various peptide concentrations (0 μM, 5 μM, 25 μM). Protein was extracted after cells were cultured or treated for 48 h using protein lysis buffer, separated using a 10% or 15% Bis–Tris PAGE gel (Epizyme Biomedical Technology, Shanghai, China), and transferred onto a PVDF membrane (Thermo Fisher Scientific) according to standard techniques. The Western blots were imaged using Bio-rad Chemidoc MP and quantified using ImageJ software (NIH).
(§2) To confirm whether PDPN could affect migration and invasion of melanoma cells in wnt/β-catenin signaling pathway-dependent manner, A375 cells with PDPN knockdown were treated with a Wnt/β-catenin signaling pathway agonist (SKL2001) and PDPN overexpression A875 cells were treated with an inhibitor (IWR1). […] Furthermore, the levels of EMT positively correlated proteins, including N-cadherin, vimentin and snail were all suppressed, while E-cadherin was increased in A375 cells transfected with LV-shPDPN, and these phenomena were reversed following treatment with SKL2001 (Fig. S2E). In contrast, in the A875 cells, the activation of EMT by PDPN overexpression was blocked by IWR1 (Fig. S2E).

[2] = system: A875 PDPN overexpression cells; test: Transwell, PDPN-overexpressing A875 cells; format: cell-based; conditions: A875 with PDPN overexpression
Description: (§3) For invasion assay, matrigel (Corning, New York, USA) was coated on the upper surface of the upper chamber. The upper chamber was filled with DMEM medium containing 2% FBS, while the lower chamber contained a medium supplemented with 20% FBS. In brief, melanoma cells (A375 GFP, A875 GFP, A375 PDPN^−/−, and A875 PDPN^+/+ cells) were seeded in the upper chamber of the transwell plate (Corning, New York, USA) at about 5 × 10^4 cells/well with the medium as described above. For peptide functionality experiments, A375 and A875 cells were seeded in the upper chamber of the transwell plate at a density of 5 × 10^4 cells/well with various peptide concentrations (0 μM, 5 μM, 25 μM). Transwell inserts were fixed using 4% paraformaldehyde after 48 h cell invasion, and crystalline violet was used for staining. The quantities of invading cells were quantified using ImageJ software (NIH).
(§4) To confirm whether PDPN could affect migration and invasion of melanoma cells in wnt/β-catenin signaling pathway-dependent manner, A375 cells with PDPN knockdown were treated with a Wnt/β-catenin signaling pathway agonist (SKL2001) and PDPN overexpression A875 cells were treated with an inhibitor (IWR1). […]

[3] = system: A875 PDPN overexpression cells; test: Wound healing, PDPN-overexpressing A875 cells; format: cell-based; conditions: A875 with PDPN overexpression
Description: (§5) A375 GFP, A875 GFP, A375 PDPN^−/−, and A875 PDPN^+/+ cells were all seeded in 12-well plates at a density of 5 × 10^5 cells/well. When the cells reached 100% confluence the next day, the straight wound was scraped in each cultured well with a 20 µL pipette tip. Then the cells were washed repeatedly with complete DMEM to remove the cellular debris, and the medium was changed to a low serum medium containing 0.05% FBS. The scratch-treated cells were subsequently cultured for an additional indicated time and imaged at 0 h, 12 h, 24 h and 48 h. Quantification of wound closure was accomplished by measuring the distance between the phase contrast images’ anterior edges of the contralateral surfaces using ImageJ software. As for peptide (CY12-RP2) function experiments, images of phase contrast for A375 GFP and A875 GFP cells were captured at 0 h before peptide administration. The cells were then treated with CY12-RP2 (0 μM, 5 μM, 25 μM) for 24 h or 48 h, and then images were acquired again. Handling of the experimental results were carried out as previously described.
as §4

[4] = system: Wnt/β-catenin signaling pathway; test: Western blot, EMT and Wnt/β-catenin pathway, melanoma cells; format: cell-based; conditions: combined with CY12-RP2; SKL2001 50 μM; Western blot
Description: as §1
Fig. S4: The inhibition of cells metastasis and invasion by CY12-RP2 can be […]
(A, B) The inhibition of CY12-RP2 on the migration capacity of melanoma cell lines was reversed by SKL2001 (A). Statistical analysis was performed to determine the migrated distance (B). The power field scale bar, 100 μm. (C, D) Effect of CY12-RP2 on the invasive ability of melanoma cell lines were reversed by SKL2001 (C). […]
(§6) (A) TUNEL analysis of apoptosis was conducted on orthotopic xenografts tumor sections using fluorescence staining. […] (B) Fluorescence staining of Ki67 was carried out on orthotopic xenograft tumor sections.
(§7) The power field scale bar, 100 μm. (C) Serum His-CY12-RP2 levels of the orthotopic xenografts mice treated by various dosage of CY12-RP2 were measured by His-ELISA kit. […]
(§8) kit. (E) Serum ALT, AST, TG, and γ-GT levels of the orthotopic xenografts model were measured by ELISA. […]

[5] = system: EMT proteins in A375 LV-shPDPN cells; test: Western blot EMT proteins, PDPN-knockdown A375 cells; format: cell-based
Description: as §1, §2

melanoma cells [6] = test: Wound healing with SKL2001, melanoma cell lines; format: cell-based; conditions: combined with CY12-RP2
Description: as §5, with “The cells were then treated with CY12-RP2 (0 μM, 5 μM, 25 μM) for 24 h or 48 h, and then images were acquired again. Handling of the experimental results were carried out as previously described.” left out
as §6, §7, §8

[7] = system: A375 PDPN knockdown cells; test: Wound healing, PDPN-knockdown A375 cells; format: cell-based; conditions: A375 with PDPN knockdown
Description: as §5, §4

[8] = system: A375 PDPN knockdown cells; test: Transwell, PDPN-knockdown A375 cells; format: cell-based; conditions: A375 with PDPN knockdown
Description: as §3, §4

melanoma cells [9] = test: Transwell invasion with SKL2001, melanoma cell lines; format: cell-based; conditions: combined with CY12-RP2
Description: as §3, with “(NIH). […]” for “(NIH).”
as §6, §7, §8

[-CSSRTMHHC-] [peptide screened by C7C phage display library]
melanoma growth and invasion (melanoma): suppress melanoma growth and invasion both in vitro and in vivo

O=C(Nc1cccc2cccnc12)c1ccc(N2C(=O)[C@@H]3[C@H](C2=O)[C@@H]2C=C[C@H]3C2)cc1 [IWR1]
activation of EMT by PDPN overexpression [1]: blocked | increase of invasion mediated by PDPN overexpression [2]: abrogated | promotion of migration by PDPN overexpression [3]: inhibited

O=C(NCCCn1ccnc1)c1cc(-c2ccco2)on1 [SKL2001]
effect of SKL2001 on CY12-RP2 inhibition of EMT and Wnt/β-catenin signaling [4]: significantly reversed | changes of N-cadherin, vimentin, snail and E-cadherin by LV-shPDPN [5]: reversed | effect of SKL2001 on CY12-RP2 inhibition of migration (melanoma cells [6]): significantly reversed | inhibition of migration by PDPN knockdown [7]: abolished | decrease of invasion mediated by PDPN knockdown [8]: abrogated | effect of SKL2001 on CY12-RP2 inhibition of invasion (melanoma cells [9]): significantly reversed
